Source: paper PMC12552953, “SA-XV, a 15-amino acid fragment of host defense peptide S100A12, targets mitochondria and is protective against fungal infections” (The Journal of Biological Chemistry, 2025)
Like-named read-outs stand apart in the source and are kept apart here. Where no end group is shown, it is not given here.

Legend:
F. solani = assay: Murine model of F. solani keratitis; conditions: 48 h postinfection; SA-XV at 0 and 6 h or 6 and 18 h, AmpB at 0 and 6 h
Protocol: C57BL/6 mice (6–8 weeks old) were anesthetized by intraperitoneal injection using ketamine (8.7 mg/ml) and xylazine (0.5 mg/ml) at a dose of 120 μl/g body weight. While anesthetized, the corneal epithelium was abraded with three parallel vertical and horizontal scratches with a 26-gauge needle, and F. solani (10^7 conidia in 2.5 μl) were added in one eye, whereas the fellow eye received 1× PBS (n = 5). […] One more group of mice (n = 5) was infected with F. solani followed by topical application of AmpB (5 μg) at 0 and 6 h postinfection. Mice were euthanized and examined under a stereomicroscope for density and area of corneal opacification or ulceration 48 h postinfection and photographed using a digital camera. Clinical scores for the opacity were determined in a blinded fashion according to the scale earlier reported ([90]), eyes were enucleated and homogenized using a tissue homogenizer (Ez-Lyzer; Genetix Biotech) in sterile 1× PBS, and homogenates were plated on PDA plates for determining CFUs.

[1] = tested on: T7 RNA polymerase, plasmid DNA; assay: In vitro transcription assay; type: biochemical; conditions: 2 h, 37 °C, agarose gel
Protocol: In vitro transcription assay was done using the commercial kit Riboprobe System-T7 (Promega), according to the instructions for positive control samples but adding different concentrations of peptide to the reactions. As a negative control, the DNA template was omitted from the reaction mix. After 2 h of incubation at 37 °C, samples were run in a 1.2% agarose gel in TAE buffer and imaged using the Gel Doc System (Bio-Rad).

in vitro [2] = conditions: 25% fetal bovine serum in RPMI media
Protocol: mentioned previously (5).
supplemented with 25% FBS at 37 °C for 15 min. 100 µl aliquots were taken at different time
intervals (0, 30, 60, 120, 180, and 240 min). 200 µl of 96% ethanol was added to precipitate the
serum followed by centrifugation at 12000 x g for 2 min. 20 µl of the supernatant was subjected
to a LC-20AT reverse phase HPLC system (SHIMADZU, Japan) equipped with Phenomenix
C18 column (250x10 mm, pore size 100 Å, particle size 5 µm), at room temperature, using
acetonitrile and water with 0.1 % TFA as the solvents. A flow rate of 1ml/min was maintained.
The percentage of peptide remaining in the supernatant at different time intervals were analysed
by peak integration using SPINCHROME CFR software, and the area obtained was normalized with respect to the free peptide.

C. albicans = type: cell-based, Candida albicans
Protocol: Fusarium spp. or Candida spp. (1 × 10^4 conidia) were incubated with 60 μM of FITC-SA-XV at 4 °C or 29 °C or different time points in SDB. The conidia were then washed three times with Milli-Q water and fixed using 4% paraformaldehyde. In some experiments, DAPI (Vectashield) or MitoTracker (Invitrogen) were used to stain specific cell organelles. In a different experiment, cytochrome c was detected in peptide-treated or untreated cells by incubating with anti–cytochrome c antibody (1:100 dilution; BioLegend), followed by Alexa Fluor 488 secondary antibody (1:1000 dilution; Thermo Fisher Scientific). In a separate experiment, the spores were incubated with SA-XV for 4 h in the presence or absence of FD (SR LifeScience Solution) of different molecular weights, washed with Milli-Q water, and fixed using 4% paraformaldehyde. The conidia were imaged using a 63× objective in a confocal microscope (LSM 880; Zeiss).

[3] = peptide-free 41.6 ppm
Protocol: A single 90° pulse ^31P solid-state NMR experiment was performed on an Agilent NMR spectrometer (DD2) equipped with a 4 mm MAS HXY Solid Probe. Resonance frequencies were 699.88 MHz and 283.31 MHz for ^1H and ^31P, respectively. The TPPM ^1H-decoupled condition was used. LUVs were kept in a diameter of 4 mm Pyrex glass tube sealed with parafilm at an ambient temperature. ^31P spectra were collected with 512∼1000 scans and a recycle delay of 2 s. The spectra were referenced externally to 85% phosphoric acid (0 ppm).
^31P solid-state NMR experiments were performed using the Agilent NMR spectrometer (DD2) functioning at the resonance frequency of 283.31 MHz for ^31P and 699.88 MHz for ^1H, equipped with a 4 mm MAS HXY Solid Probe. MLVs were prepared by dissolving POPC, POPE, and ERG (5:4:3) in chloroform to obtain a stock of 5 mg/ml. The lipid mixtures were dried under nitrogen gas, lyophilized overnight followed by dissolving the lipid film in Tris buffer (pH 7.4), and hydrated for 1 h by vortexing occasionally and freeze–thawing five times. A single 90◦ pulse and 24 kHz TPPM proton decoupling were used. The π/2 pulse lengths were set at 6.8 μs for the ^31P nucleus. MLVs were kept in a 4 mm Pyrex glass tube, which was fit into the MAS probe, and sealed with parafilm. […] MestReNova software (version 8.1) with 250 Hz line broadening was used for spectra processing.

C. albicans biofilm = type: cell-based, Candida albicans; conditions: 24 h, 60 μM
[4] = tested on: C. albicans ocular clinical isolates; type: cell-based, Candida albicans; conditions: 48 h
Protocol: (§1) The ocular clinical isolates of F. solani (n = 5) and C. albicans (n = 5) were obtained from Jhaveri Microbiology Centre, LVPEI, India. The isolates were grown at 29 °C in Sabouraud dextrose broth (SDB; Himedia) for 48 h. Fusarium conidia (spores) were harvested as described before ([69]), centrifuged at 8000 rpm for 15 min to pellet the conidia, washed in 10 mM phosphate buffer (pH 7.4) twice, and resuspended in the same. Candida was grown in SDB overnight, centrifuged, washed, and resuspended similarly. F. solani and C. albicans (1 × 10^4 conidia) were grown in the presence or absence of different concentrations of SA-XV in SDB in a 96-well microtiter plate and incubated at 29 °C for 24 h. Negative controls consisting of fungus only and a positive control consisting of fungus treated with AmpB (55 μM) were incubated simultaneously. The culture was then diluted accordingly and plated in potato dextrose agar (PDA) plates and incubated further for 24 h. The effect of the peptide was determined by quantifying the CFUs on the PDA plates. The effect of SA-XV on A. flavus was also determined similarly. All the experiments were performed at least thrice and in triplicate.

chorioallantoic membrane = tested on: chorioallantoic membrane; parameters: species or system hen
Protocol: (§2) Supplementary experimental procedures
Cell culture and in vitro scratch assay […]
SA-XV was added directly onto the chorioallantoic
M sodium hydroxide solution.

[5] = increased concentration of SA-XV
Protocol: Fungal model membrane mimics composing 5:4:3 POPC/POPE/ERG were created following the standard protocol. […] The lipid film was created after drying in a stream of nitrogen gas and lyophilizing overnight. The lipid film was then hydrated with 70 mM calcein dissolved in 10 mM Tris buffer (pH 7.4), followed by vigorous vortexing for 30 min and subjecting to five freeze–thaw cycles in liquid nitrogen and lukewarm water to obtain the dye-entrapped vesicles. The vesicles were then passed through a 100-nm polycarbonate membrane filter stacked in a mini extruder (Avanti Polar Lipids) set up to obtain LUVs. […]
Dye-encapsulated liposomes were suspended in an extravesicular buffer containing 10 mM Tris buffer and 100 mM NaCl (pH 7.4). The leakage of calcein caused by liposome disruption was analyzed by fluorescence emission at 519 nm using a JASCO F-8500 fluorescence spectrophotometer. […] S100A12 was added at functional concentrations, and enhancement in fluorescence was measured. […] Percentage leakage was calculated using the equation. […]
where, F0, F, and FT denote the basal fluorescence intensity, fluorescence intensity after addition of peptides, and maximum fluorescence intensity obtained after addition of 0.1% Triton X-100, respectively.

[6] = tested on: sinonasal epithelial cells (SNEC); type: cell-based
Protocol: as §2
(§3) Cell culture and in vitro scratch assay
(§4) Aldrich, St. Louis, MO) as described earlier (3). In brief, cells (2x10^4 cells/well) were seeded into 96 well plates and cultured overnight. Cells were treated with different concentration of […]
(§5) reader SpectraMax M3 (Softmax Pro 6.3). […]

[7] = tested on: peripheral blood mononuclear cells (PBMC); type: cell-based
Protocol: as §2, §3, §4, §5

[8] = n = 3
in vitro [9] = type: cell-based, human; conditions: human
Protocol: as §2, §3, §4, §5

[10] = tested on: human corneal epithelial cells (HCEC); assay: in vitro; type: cell-based
Protocol: as §2, §3, §4, §5

[11] = tested on: Fusarium spp. ocular clinical isolates; type: cell-based; conditions: 48 h
Protocol: as §1

Fusarium solani = type: cell-based; conditions: 48 h
Protocol: as §1

Candida albicans = type: cell-based; conditions: 48 h
Protocol: as §1

C[C@@H]1[C@H](O)[C@@H](C)/C=C/C=C/C=C/C=C/C=C/C=C/C=C/[C@H](O[C@@H]2O[C@H](C)[C@@H](O)[C@H](N)[C@@H]2O)C[C@@H]2O[C@](O)(C[C@@H](O)C[C@@H](O)[C@H](O)CC[C@@H](O)C[C@@H](O)CC(=O)O[C@H]1C)C[C@H](O)[C@H]2C(=O)O [AmpB, amphotericin B]
corneal opacification (F. solani): Distinct reduced opacification
RNA synthesis in vitro [1]: did not show any appreciable effect

VAIALKAAHYHTHKE [SA-XV]
half-life at 1 mg/ml (in vitro [2]): > 3 h
translocation into fungal cells (C. albicans): translocates
chemical shift anisotropy span ([3]; 1 mol% peptide): 44.6 ppm
chemical shift anisotropy span ([3]; 3 mol% peptide): 46.4 ppm
inhibition of biofilm formation (C. albicans biofilm): more than 70%
penetration into HCECs (HCECs): to some extent
% Growth Inhibition by SA-XV (60 μM) [4]: 99.99%
irritation effect (chorioallantoic membrane): nonirritant
dye leakage from fungal-membrane liposomes [5]: Increased dye leakage
cytotoxicity [6]: did not show any substantial cytotoxicity
cytotoxicity [7]: did not show any substantial cytotoxicity
histopathology of corneal sections [8]: no damages or abnormalities
corneal findings ([8]; peptide four times at 3 h interval for 2 days, no edema or hyperemia): no corneal erosions or opacity
IC50 at 24 h (in vitro [9]): 302 µM
cytotoxicity [10]: did not show any substantial cytotoxicity
% Growth Inhibition by SA-XV (60 μM) [11]: 99.99%
MIC90 (Fusarium solani): 15 µM
MIC90 (Candida albicans): 15 µM
